US10882825B2, “Non-solvated crystal, preparation method and application thereof” (SHENZHEN CHIPSCREEN BIOSCIENCES CO., LTD., priority 2016, dated 2021)

Assay: Stability test of the crystal form (high temperature, high humidity, strong light irradiation; X-ray powder diffraction and HPLC content)
Assay type: physicochemical
Conditions: high temperature (60° C.), high humidity (90%), strong light irradiation (4500 Lx); day 0 vs day 10
Protocol: Test conditions of X-ray powder diffraction: instrument: D/MAX-1200 (Rigaku, Japan); radiation source: Cu-Kα (40 kV, 40 mA).
Test conditions of stability: high temperature (60° C.), high humidity (90%) and strong light irradiation (4500 Lx) tests are performed according to the Chinese Pharmacopoeia 2010 edition, Part II, Appendix XIX C.
Test conditions of HPLC: instrument: Dionex UltiMate3000; column: Shim-pack VP-ODS 5 μm 250 L×4.6; detector: VWD-3100, detection wavelength: 256 nm; mobile phase: methanol-water-glacial acetic acid (30:70:0.4); flow rate: 1.0 mL/min, column temperature: 30° C.
High temperature (60° C.), high humidity (90%) and strong light irradiation (4500 Lx) tests of the non-solvated crystal A of example 1, non-solvated crystal B of example 2, and non-solvated crystal C of example 3 were performed according to the Chinese Pharmacopoeia 2010 edition, Part II, Appendix XIX C. Samples on day 0 and day 10 respectively were taken to determine the X-ray powder diffraction pattern and content (HPLC method).

- content (HPLC method) after stability test: does not change significantly
SMILES: COc1ccc2c(Oc3ccc4c(C(=O)Nc5ccccc5N)cccc4c3)ccnc2c1 [non-solvated crystal A, N-(2-aminophenyl)-6-(7-methoxyquinoline-4-oxo)-1-naphthaleneformamide]
- crystal form (X-ray powder diffraction pattern) after stability test: remain unchanged in their original crystal forms
